# Results published in ChEMBL document CHEMBL1955806, “Design, synthesis, single-crystal and preliminary antitumor activity of novel arenesulfonylimidazolidin-2-ones” (2012).
# Legend:
# Assay type in all cases: functional
# Hs-578T = assay: Growth inhibition of human Hs578T cells at 10 uM after 48 hrs by sulforhodamine B assay; conditions: read-out: GI
# M14 = assay: Growth inhibition of human M14 cells at 10 uM after 48 hrs by sulforhodamine B assay; conditions: M14, 48 h, read-out: GI
# HL-60(TB) = assay: Growth inhibition of human HL-60(TB) cells at 10 uM after 48 hrs by sulforhodamine B assay; conditions: HL-60, 48 h, read-out: GI
# SR = assay: Growth inhibition of human SR cells at 10 uM after 48 hrs by sulforhodamine B assay; conditions: read-out: GI
# NCI-H226 = assay: Growth inhibition of human NCI-H226 cells at 10 uM after 48 hrs by sulforhodamine B assay; conditions: NCI-H226, 48 h, read-out: GI
# 786-0 = assay: Growth inhibition of human 786-0 cells at 10 uM after 48 hrs by sulforhodamine B assay; conditions: 786-0, 48 h, read-out: GI
# HT-29 = assay: Growth inhibition of human HT-29 cells at 10 uM after 48 hrs by sulforhodamine B assay; conditions: HT-29, 48 h, read-out: GI
# COLO 205 = assay: Growth inhibition of human COLO205 cells at 10 uM after 48 hrs by sulforhodamine B assay; conditions: COLO 205, 48 h, read-out: GI
# SK-MEL-28 = assay: Growth inhibition of human SK-MEL-28 cells at 10 uM after 48 hrs by sulforhodamine B assay; conditions: SK-MEL-28, 48 h, read-out: GI
# SN12C = assay: Growth inhibition of human SN12C cells at 10 uM after 48 hrs by sulforhodamine B assay; conditions: read-out: GI
# SK-MEL-5 = assay: Growth inhibition of human SK-MEL-5 cells at 10 uM after 48 hrs by sulforhodamine B assay; conditions: SK-MEL-5, 48 h, read-out: GI
# A498 = assay: Growth inhibition of human A498 cells at 10 uM after 48 hrs by sulforhodamine B assay; conditions: A498, 48 h, read-out: GI
# PC-3 = assay: Growth inhibition of human PC3 cells at 10 uM after 48 hrs by sulforhodamine B assay; conditions: PC-3, 48 h, read-out: GI
# HCC 2998 = assay: Growth inhibition of human HCC2998 cells at 10 uM after 48 hrs by sulforhodamine B assay; conditions: HCC 2998, 48 h, read-out: GI
# RPMI-8226 = assay: Growth inhibition of human RPMI8226 cells at 10 uM after 48 hrs by sulforhodamine B assay; conditions: RPMI-8226, 48 h, read-out: GI
# NCI-H322M = assay: Growth inhibition of human NCI-H322M cells at 10 uM after 48 hrs by sulforhodamine B assay; conditions: read-out: GI
smiles,measurement,setting,value
CO[C@@H]1[C@@H](OC)N(S(=O)(=O)c2ccc(Cl)cc2)C(=O)N1S(=O)(=O)c1ccc(Cl)cc1 (relative stereo),inhibition of growth at 10 µM,Hs-578T,-4.94%
same,inhibition of growth at 10 µM,M14,6.23%
same,inhibition of growth at 10 µM,HL-60(TB),3.82%
same,inhibition of growth at 10 µM,SR,34.7%
same,inhibition of growth at 10 µM,NCI-H226,4.24%
same,inhibition of growth at 10 µM,786-0,16.8%
same,inhibition of growth at 10 µM,HT-29,16%
same,inhibition of growth at 10 µM,COLO 205,-3.4%
same,inhibition of growth at 10 µM,SK-MEL-28,-7.4%
same,inhibition of growth at 10 µM,SN12C,14.4%
same,inhibition of growth at 10 µM,SK-MEL-5,-2.95%
same,inhibition of growth at 10 µM,A498,4.59%
same,inhibition of growth at 10 µM,PC-3,29.8%
same,inhibition of growth at 10 µM,HCC 2998,5.43%
same,inhibition of growth at 10 µM,RPMI-8226,21.9%
same,inhibition of growth at 10 µM,NCI-H322M,14.7%
